Data from patent publication US6331555A, “Treatment of platelet derived growth factor related disorders such as cancers” (priority 1999, dated 2001).
Where two headings read alike, the source gives them in different places.

Legend:
Type in all cases: cell-based
FLK-1 = molecular target: T1, FLK-1 (Mus musculus, UniProt P35918); experiment: Receptor tyrosine kinase inhibition, FLK-1
T1 construct: expressed in transfected cells; host or cells: NIH3T3 mouse fibroblasts, retroviral vector
Procedure: (§1) For western blotting, cells were plated in 2 mL growth medium into 6-well dishes (500,000 cells per well) and allowed to attach overnight. The medium was replaced with 2 mL MCDB 105 (UCSF Cell Culture Facility) supplemented with 1% FBS. The plates were then incubated overnight at 37° C., ambient CO2. […] After a 7 min incubation at room temperature with ligand, the plates were put on ice and washed three times with 1 mL ice-cold PBS plus 1 mM orthovanadate. Lysis was achieved by pipetting cells in 0.5 mL of buffer containing 50 mM Tris, pH 7.4, 10% glycerol, 1% NP-40, 2 mM EDTA, 1 mM sodium vanadate (Na3 VO4), 10 mM pyrophosphate, 1 mM PMSF, […]. A 300 μL aliquot of each lysate was immediately added to 100 μL 4×Laemmli sample buffer ([…] Tris pH 6.9, 20% glycerol, 7% SDS, 5 mM EDTA, 5% β-mercaptoethanol) containing phosphatase inhibitors, 2 mM Na3 VO4 and 10 mM pyrophosphate. Samples were boiled for 5 min, frozen in dry ice-ethanol, and stored at -80° C. Proteins were resolved by SDS-PAGE (Bio-Rad Miniprotean II) and transferred to nitrocellulose membrane (Schleicher & Schuell) at 120 volts for 1 hr at room temperature in buffer containing 25 mM Tris pH 8.3, 20% methanol, 0.2 M glycine, 0.1% SDS. The integrity of the protein-to-membrane transfer was determined by staining with 1% Ponceau S in 5% acetic acid for 5 min. After destaining in several distilled water rinses, the membrane was soaked overnight in blocking buffer containing 5% milk in Tris-buffered saline, 0.05% Tween 20. Phosphotyresine was detected by incubating the membrane (1 hr at room temperature) with an anti-phosphotyosine antiserum diluted in blocking buffer at 1:3000. For C6 cells, PDGF-β receptor content in the lysates was confirmed in duplicate sample lanes by western blotting using an antibody specific for PDGF-β receptor (UBI). The antibodies were visualized using ECL reagent from Amersham and by exposure to Fuji RX film.
(§2) For ELISA assays, cells were grown to 80-90% confluency in growth medium and seeded in 96-well tissue culture plates in 0.5% serum at 25,000 to 30,000 cells per well. After overnight incubation in 0.5% serum-containingmedium, cells were changed to serum-free medium and treated with test compound for 2 hr in a 5% CO2, 37° C. incubator. Cells were then stimulated with ligand for 5-10 min followed by lysis with HNTG (20 mM Hepes, 150 mM NaCl, 10% glycerol, 5 mM EDTA, 5 mM Na3 VO4 0.2% Triton X-100, and 2 mM NaPyr). Cell lysates (0.5 mg/well in PBS) were transferred to ELISA plates previously coated with receptor-specific antibody and which had been blocked with 5% milk in TBST (50 mM Tris-HCl pH 7.2, 150 mM NaCl and 0.1% Triton X-100) at room temperature for 30 min. Lysates were incubated with shaking for 1 hr at room temperature. The plates were washed with TBST four times and then incubated with polyclonol anti-phosphotyrosine antibody at room temperature for 30 min. Excess anti-phosphotyrosine antibody was removed by rinsing the plate with TBST four times. Goat anti-rabbit IgG antibody was added to the ELISA plate for 30 min at room temperature followed by rinsing with TBST four more times.
(§3) The ability of different compound to inhibit different receptor tyrosine kinases was tested.

PDGFR = experiment: Receptor tyrosine kinase inhibition, PDGFR; settings: for IC50: W = done in Western assay, read-out: PDGFR IC50 (W)
Method in brief: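 Serum-starved cells treated with test compound for 2 hr at 37° C, then receptor phosphotyrosine measured by ELISA with anti-phosphotyrosine antibody and goat anti-rabbit IgG. Western blots used 7 min ligand stimulation at room temperature, vanadate-containing lysis and anti-phosphotyrosine immunodetection with ECL.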

PDGF-R (U1242) = molecular target: T2, PDGF-R (U1242) (Homo sapiens, UniProt P09619); experiment: U1242 kinase (PDGF-R activity)
T2 construct: U1242 (PDGF-β receptor); host or cells: U1242 MG glioma cells
T2 sequence (P09619 33-1106): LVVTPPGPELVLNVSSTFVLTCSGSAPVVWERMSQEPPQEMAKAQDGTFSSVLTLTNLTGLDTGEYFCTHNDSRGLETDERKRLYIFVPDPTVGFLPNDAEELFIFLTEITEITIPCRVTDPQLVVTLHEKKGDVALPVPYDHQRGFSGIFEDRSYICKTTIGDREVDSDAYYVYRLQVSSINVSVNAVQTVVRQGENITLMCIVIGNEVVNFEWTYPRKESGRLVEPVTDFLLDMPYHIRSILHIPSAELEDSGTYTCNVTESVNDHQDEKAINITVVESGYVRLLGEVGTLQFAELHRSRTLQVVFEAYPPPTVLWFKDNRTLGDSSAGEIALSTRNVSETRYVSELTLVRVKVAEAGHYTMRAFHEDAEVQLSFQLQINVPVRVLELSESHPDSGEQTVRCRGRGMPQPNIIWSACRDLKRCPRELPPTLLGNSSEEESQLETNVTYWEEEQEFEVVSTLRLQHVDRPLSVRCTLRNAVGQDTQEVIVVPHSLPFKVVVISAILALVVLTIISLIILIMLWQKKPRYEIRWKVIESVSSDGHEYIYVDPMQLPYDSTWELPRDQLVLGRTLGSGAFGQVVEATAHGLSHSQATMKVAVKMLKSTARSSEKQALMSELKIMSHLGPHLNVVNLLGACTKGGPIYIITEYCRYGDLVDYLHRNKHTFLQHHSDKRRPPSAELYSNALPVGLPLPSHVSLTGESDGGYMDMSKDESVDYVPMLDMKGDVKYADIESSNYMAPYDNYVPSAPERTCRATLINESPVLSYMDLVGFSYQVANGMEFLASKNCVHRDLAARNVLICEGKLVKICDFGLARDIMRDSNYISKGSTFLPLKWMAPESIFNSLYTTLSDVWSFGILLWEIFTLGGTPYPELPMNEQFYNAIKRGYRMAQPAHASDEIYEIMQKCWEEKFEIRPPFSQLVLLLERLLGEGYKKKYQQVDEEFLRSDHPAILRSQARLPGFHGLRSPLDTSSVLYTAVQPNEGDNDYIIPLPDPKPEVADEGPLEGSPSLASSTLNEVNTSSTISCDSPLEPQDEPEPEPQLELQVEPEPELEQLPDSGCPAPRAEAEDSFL
Method in brief: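 For ELISA, cells were held overnight in 0.5% serum, then treated with compound for 2 h at 37 °C in serum-free medium. Lysate phosphotyrosine was detected with polyclonal anti-phosphotyrosine antibody. In western blots, cells were stimulated with ligand for 7 min at room temperature and probed with anti-phosphotyrosine (1:3000).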

HER2 = experiment: Receptor tyrosine kinase inhibition, HER2; settings: for IC50: read-out: HER2 IC50
Procedure: as §1, §2, §3

[1] = W = done in Western assay, read-out: FLK-1 IC50 (W)
[2] = W = done in Western assay, read-out: U1242 KINASE IC50 (W)

T1 sequence (P35918 20-1345): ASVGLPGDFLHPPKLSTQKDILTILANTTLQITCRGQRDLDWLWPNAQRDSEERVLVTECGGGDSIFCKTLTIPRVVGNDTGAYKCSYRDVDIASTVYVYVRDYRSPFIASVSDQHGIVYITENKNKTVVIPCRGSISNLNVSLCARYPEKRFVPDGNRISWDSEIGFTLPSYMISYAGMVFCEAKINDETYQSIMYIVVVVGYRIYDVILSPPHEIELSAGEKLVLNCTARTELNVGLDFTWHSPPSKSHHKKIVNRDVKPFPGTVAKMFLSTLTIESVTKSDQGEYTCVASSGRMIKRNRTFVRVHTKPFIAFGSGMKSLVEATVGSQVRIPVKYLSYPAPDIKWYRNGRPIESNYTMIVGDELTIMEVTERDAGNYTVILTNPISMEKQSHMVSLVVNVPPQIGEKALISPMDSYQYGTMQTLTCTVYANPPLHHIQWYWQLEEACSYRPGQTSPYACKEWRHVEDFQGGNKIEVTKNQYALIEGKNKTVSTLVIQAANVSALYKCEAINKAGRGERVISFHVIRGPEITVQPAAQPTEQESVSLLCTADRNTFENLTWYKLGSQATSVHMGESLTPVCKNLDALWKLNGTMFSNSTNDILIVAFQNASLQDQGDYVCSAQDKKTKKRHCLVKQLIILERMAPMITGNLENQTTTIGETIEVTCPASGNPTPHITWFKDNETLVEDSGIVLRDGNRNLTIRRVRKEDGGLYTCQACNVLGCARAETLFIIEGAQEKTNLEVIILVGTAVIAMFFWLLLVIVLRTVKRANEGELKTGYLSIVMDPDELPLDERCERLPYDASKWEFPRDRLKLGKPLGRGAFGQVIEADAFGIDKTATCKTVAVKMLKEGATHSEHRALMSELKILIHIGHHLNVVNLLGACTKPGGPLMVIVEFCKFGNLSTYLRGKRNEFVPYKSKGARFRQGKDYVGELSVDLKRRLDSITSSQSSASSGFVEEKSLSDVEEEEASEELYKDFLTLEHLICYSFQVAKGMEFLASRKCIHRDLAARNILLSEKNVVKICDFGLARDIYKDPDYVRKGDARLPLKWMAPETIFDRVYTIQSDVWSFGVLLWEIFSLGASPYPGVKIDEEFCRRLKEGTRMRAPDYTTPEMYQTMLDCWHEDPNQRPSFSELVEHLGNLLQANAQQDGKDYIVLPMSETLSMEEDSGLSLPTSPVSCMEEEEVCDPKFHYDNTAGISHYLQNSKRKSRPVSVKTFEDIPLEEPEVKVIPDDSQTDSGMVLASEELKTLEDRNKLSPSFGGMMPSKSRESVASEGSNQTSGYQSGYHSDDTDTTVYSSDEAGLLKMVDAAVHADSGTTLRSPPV

| SMILES | IC50 (FLK-1; read-out: FLK-1 IC50) [µM] | IC50 (PDGFR) [µM] | IC50 (PDGF-R (U1242); [2]) [µM] | HER2 phosphorylation (HER2) | PDGF-R phosphorylation (PDGFR) | IC50 (HER2) [µM] | other results |
| --- | --- | --- | --- | --- | --- | --- | --- |
| CN(C)CCCn1cc(C=C(C#N)c2[nH]nc(N)c2C#N)c2ccccc21 [Compound D15] | > 50 | 19 | – | – | – | – | – |
| COc1cc2ncc(-c3ccccc3)nc2cc1OC [Compound G14] | – | 0.8 | 0.8 | do not effect EGF or HER2 phosphorylation | inhibit PDGF-R phosphorylation | – | IC50 (FLK-1; [1]): > 30 µM |
| N#CC(=Cc1c[nH]c2ccccc12)C(N)=S [Compound D11] | > 50 | 8 | – | – | – | – | – |
| c1ccc(-c2cnc3cc4ccccc4cc3n2)cc1 [Compound G22] | – | – | 0.9 | – | – | > 50 | IC50 (PDGF-R (U1242); read-out: U1242 KINASE IC50): 14 µM |
| N#CC(=Cc1c[nH]c2ccccc12)c1[nH]nc(N)c1C#N [Compound D14] | > 50 | – | – | do not effect EGF or HER2 phosphorylation | inhibit PDGF-R phosphorylation | > 50 | – |
| Cc1cc2ncc(-c3ccccc3)nc2cc1C [Compound G13] | – | – | – | do not effect EGF or HER2 phosphorylation | inhibit PDGF-R phosphorylation | > 50 | IC50 (FLK-1; [1]): > 10 µM |
| Cc1oncc1C(=O)Nc1ccc(C(F)(F)F)cc1 [Compound A10, 5-methylisoxazole-4 carboxylic acid-(4-trifluromethyl)-anilide] | – | – | – | little if any effect on EGF-receptor or HER2 phosphorylation | – | – | – |

The next lines start with results.

| IC50 (FLK-1; read-out: FLK-1 IC50) [µM] | IC50 (PDGFR) [µM] | SMILES | IC50 (PDGF-R (U1242); [2]) [µM] | HER2 phosphorylation (HER2) | PDGF-R phosphorylation (PDGFR) | IC50 (HER2) [µM] | other results |
| --- | --- | --- | --- | --- | --- | --- | --- |
| – | 10 | Cc1cc2nc(-c3ccccc3)c(=O)[nH]c2cc1C [Compound G18] | – | – | – | – | – |
| > 50 | 5 | O=c1c2ccccc2nc(C=Cc2ccc(O)c(O)c2)n1CCO [Compound F10] | 45 | – | – | – | – |
